29 compounds from US9051310B2, “Nicotinamide derivative or salt thereof” (FUJIFILM Corporation, priority 2011, dated 2015) can be followed below.

The structures appear in SMILES notation.

In this assay the target is T1, glutathione S-transferase (GST)-linked full-length human Syk protein (Homo sapiens, UniProt P43405).
T1 construct: glutathione S-transferase (GST)-linked full-length human Syk protein; purchased Carna Biosciences; host or cells: Baculovirus expression system
Kind of assay: Syk enzyme assay. The following applies: 0.83 nM Syk, time-resolved fluorescence; read-out: IC50 of Syk-inhibitory activity. The assay is classed as biochemical. Summed up:
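Phosphotyrosine on a biotin-peptide substrate (0.5 μM) was read by time-resolved fluorescence at 615 and 665 nm with Eu-anti-pTyr antibody and APC-streptavidin after 1 h EDTA stop.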
`COCCn1nc(OC(F)F)c2cc(Nc3nc(N[C@H](C4CC4)[C@H](C)N)c(F)cc3C(N)=O)ccc21` [Example 2-176, 6-(((1R,2S)-2-amino-1-cyclopropylpropyl)amino)-2-((3-(difluoromethoxy)-1-(2-methoxyethyl)-1H-indazol-5-yl)amino)-5-fluoronicotinamide]: the IC50 was less than 10 nM.
The same measure for `CCn1ncc2c(Nc3nc(N[C@@H]4CCCC[C@@H]4N)c(F)cc3C(N)=O)cc(F)cc21` [Example 2-369, 6-(((1R,2S)-2-aminocyclohexyl)amino)-2-((1-ethyl-6-fluoro-1H-indazol-4-yl)amino)-5-fluoronicotinamide]: less than 10 nM.
Take `Cc1ncc(Nc2nc(N[C@@H]3CC[C@@H](O)C[C@@H]3N)c(F)cc2C(N)=O)cc1-n1nccn1` (racemic) [Example 2-531, Mixture of 6-((2-amino-4-hydroxycyclohexyl)amino)-5-fluoro-2-((6-methyl-5-(2H-1,2,3-triazol-2-yl)pyridin-3-yl)amino)nicotinamide (1R,2S,4R), (1S,2R,4S)]: the IC50 fell in the range of 10 to 50 nM.
The same measure for `CNc1n[nH]c2ccc(Nc3nc(N[C@H](C4CC4)[C@H](C)N)c(F)cc3C(N)=O)cc12` [Example 2-490, 6-(((1R,2S)-2-amino-1-cyclopropylpropyl)amino)-5-fluoro-2-((3-(methylamino)-1H-indazol-5-yl)amino)nicotinamide]: 10 to 50 nM; for `C[C@H](N)[C@H](Nc1nc(Nc2ccc3c(c2)c(N(C)C)nn3C)c(C(N)=O)cc1F)c1ccccc1` [Example 2-315, 6-(((1R,2S)-2-amino-1-phenylpropyl)amino)-2-((3-(dimethylamino)-1-methyl-1H-indazol-5-yl)amino)-5-fluoronicotinamide]: 10 to 50 nM.
Consider `COc1ncc(Nc2nc(N[C@@H]3CCCC[C@@H]3N)c(F)cc2C(N)=O)cc1C(C)=O` [Example 2-515, 2-((5-acetyl-6-methoxypyridin-3-yl)amino)-6-(((1R,2S)-2-aminocyclohexyl)amino)-5-fluoronicotinamide], for which the IC50 was 10 to 50 nM.
Turning to `CC[C@H](N)[C@@H](CC)Nc1nc(Nc2cc(F)c3c(c2)c(N(C)C)nn3C)c(C(N)=O)cc1F` [Example 2-195, 6-(((3R,4S)-4-aminohexan-3-yl)amino)-2-((3-(dimethylamino)-7-fluoro-1-methyl-1H-indazol-5-yl)amino)-5-fluoronicotinamide], the IC50 is 10 to 50 nM.
In the case of `COCCn1ncc2c(Nc3nc(N[C@@H]4CCOC[C@@H]4N)c(F)cc3C(N)=O)cncc21` [Example 2-385, 6-(((3R,4R)-3-aminotetrahydro-2H-pyran-4-yl)amino)-5-fluoro-2-((1-(2-methoxyethyl)-1H-pyrazolo[3,4-c]pyridin-4-yl)amino)nicotinamide], the IC50 lay in the range of 10 to 50 nM.
The value for `COCCNc1nn(CCOC)c2ccc(Nc3nc(N[C@H](C4CC4)[C@H](C)N)c(F)cc3C(N)=O)cc12` [Example 2-537, 6-(((1R,2S)-2-amino-1-cyclopropylpropyl)amino)-5-fluoro-2-((1-(2-methoxyethyl)-3-((2-methoxyethyl)amino)-1H-indazol-5-yl)amino)nicotinamide] was 10 to 50 nM.
The value for `Cc1nn(CC(F)F)c2ccc(Nc3nc(N[C@H](C)[C@@H](N)C4CC4)c(F)cc3C(N)=O)cc12` [Example 2-300, 6-(((1S,2R)-1-amino-1-cyclopropylpropan-2-yl)amino)-2-((1-(2,2-difluoroethyl)-3-methyl-1H-indazol-5-yl)amino)-5-fluoronicotinamide] was 10 to 50 nM.
For the compound `COCCn1ncc2c(Nc3nc(N[C@H](CC(C)C)[C@H](C)N)c(F)cc3C(N)=O)cccc21` [Example 2-308, 6-(((2S,3R)-2-amino-5-methylhexan-3-yl)amino)-5-fluoro-2-((1-(2-methoxyethyl)-1H-indazol-4-yl)amino)nicotinamide], the IC50 is less than 10 nM.
Turning to `C[C@H](N)[C@@H](CC1CC1)Nc1nc(Nc2cc(F)c3c(c2)c(N(C)C)nn3C)c(C(N)=O)cc1F` [Example 2-191, 6-(((2R,3S)-3-amino-1-cyclopropylbutan-2-yl)amino)-2-((3-(dimethylamino)-7-fluoro-1-methyl-1H-indazol-5-yl)amino)-5-fluoronicotinamide], the IC50 lay in the range of 10 to 50 nM.
For the compound `CC[C@@H](Nc1nc(Nc2cnc3c(c2)c(C)nn3C)c(C(N)=O)cc1F)[C@H](C)N` [Example 2-241, 6-(((2S,3R)-2-aminopentan-3-yl)amino)-2-((1,3-dimethyl-1H-pyrazolo[3,4-b]pyridin-5-yl)amino)-5-fluoronicotinamide], the IC50 fell in the range of 10 to 50 nM.
The value for `CCOC[C@@H](Nc1nc(Nc2cccc3c2cnn3CCOC)c(C(N)=O)cc1F)[C@H](C)N` [Example 2-310, 6-(((2S,3S)-3-amino-1-ethoxybutan-2-yl)amino)-5-fluoro-2-((1-(2-methoxyethyl)-1H-indazol-4-yl)amino)nicotinamide] was 50 to 100 nM; that for `C[C@H](N)[C@H](Nc1nc(Nc2cnc(N3CCOCC3)c(F)c2)c(C(N)=O)cc1F)c1cccc(F)c1` [Example 2-451, 6-(((1R,2S)-2-amino-1-(3-fluorophenyl)propyl)amino)-5-fluoro-2-((5-fluoro-6-morpholinopyridin-3-yl)amino)nicotinamide] was less than 10 nM.
Turning to `CC[C@H](N)[C@@H](C)Nc1nc(Nc2ccc3c(c2)c(OC(F)F)nn3C)c(C(N)=O)cc1F` [Example 2-351, 6-(((2R,3S)-3-aminopentan-2-yl)amino)-2-((3-(difluoromethoxy)-1-methyl-1H-indazol-5-yl)amino)-5-fluoronicotinamide], the IC50 is less than 10 nM.
The value for `CCc1cccc(Nc2nc(N[C@@H]3CCCC[C@@H]3N)c(F)cc2C(N)=O)c1` [Example 2-450, 6-(((1R,2S)-2-aminocyclohexyl)amino)-2-((3-ethylphenyl)amino)-5-fluoronicotinamide] was less than 10 nM; that for `CCOc1ncc(Nc2nc(N[C@H](CC(C)C)[C@H](C)N)c(F)cc2C(N)=O)cc1-n1ccnn1` [Example 2-199, 6-(((2S,3R)-2-amino-5-methylhexan-3-yl)amino)-2-((6-ethoxy-5-(1H-1,2,3-triazol-1-yl)pyridin-3-yl)amino)-5-fluoronicotinamide] was less than 10 nM; that for `Cc1ncc(Nc2nc(N[C@H](c3ccc(C(F)(F)F)cc3)[C@H](C)N)c(F)cc2C(N)=O)cc1-n1nccn1` [Example 2-354, 6-(((1R,2S)-2-amino-1-(4-(trifluoromethyl)phenyl)propyl)amino)-5-fluoro-2-((6-methyl-5-(2H-1,2,3-triazol-2-yl)pyridin-3-yl)amino)nicotinamide] was 10 to 50 nM.
Turning to `COc1ncc(Nc2nc(N[C@H](C3CCC3)[C@H](C)N)c(F)cc2C(N)=O)cc1F` [Example 2-63, 6-(((1R,2S)-2-amino-1-cyclobutylpropyl)amino)-5-fluoro-2-((5-fluoro-6-methoxypyridin-3-yl)amino)nicotinamide.], the IC50 fell in the range of 10 to 50 nM.
For `CC[C@@H](Nc1nc(Nc2cnc(OCCOC)c(F)c2)c(C(N)=O)cc1F)[C@H](C)N` [Example 2-117, 6-(((2S,3R)-2-aminopentan-3-yl)amino)-5-fluoro-2-((5-fluoro-6-(2-methoxyethoxy)pyridin-3-yl)amino)nicotinamide], the IC50 is 50 to 100 nM.
For `CNc1nn(C)c2ccc(Nc3nc(N[C@H](C4CC4)[C@H](C)N)c(F)cc3C(N)=O)cc12` [Example 2-498, 6-(((1R,2S)-2-amino-1-cyclopropylpropyl)amino)-5-fluoro-2-((1-methyl-3-(methylamino)-1H-indazol-5-yl)amino)nicotinamide], the IC50 was less than 10 nM.
With `COC[C@@H](Nc1nc(Nc2cnc3c(c2)c(OC)nn3C)c(C(N)=O)cc1F)[C@H](C)N` [Example 2-256, 6-(((2S,3S)-3-amino-1-methoxybutan-2-yl)amino)-5-fluoro-2-((3-methoxy-1-methyl-1H-pyrazolo[3,4-b]pyridin-5-yl)amino)nicotinamide], the IC50 fell in the range of 50 to 100 nM.
As for `CCn1ncc2cc(Nc3nc(N[C@H](c4ccc(OC)cc4)[C@H](C)N)c(F)cc3C(N)=O)ccc21` [Example 2-341, 6-(((1R,2S)-2-amino-1-(4-methoxyphenyl)propyl)amino)-2-((1-ethyl-1H-indazol-5-yl)amino)-5-fluoronicotinamide], the IC50 was less than 10 nM.
Turning to `Cc1nn(-c2cncc(Nc3nc(N[C@H](C4CC4)[C@H](C)N)c(F)cc3C(N)=O)c2)nc1C` [Example 2-534, 6-(((1R,2S)-2-amino-1-cyclopropylpropyl)amino)-2-((5-(4,5-dimethyl-2H-1,2,3-triazol-2-yl)pyridin-3-yl)amino)-5-fluoronicotinamide], the IC50 is 50 to 100 nM.
On to `CC[C@H](N)[C@H](Nc1nc(Nc2cccc3c2cnn3CC(F)F)c(C(N)=O)cc1F)C1CC1` [Example 2-547, 6-(((1R,2S)-2-amino-1-cyclopropylbutyl)amino)-2-((1-(2,2-difluoroethyl)-1H-indazol-4-yl)amino)-5-fluoronicotinamide], for which the IC50 was less than 10 nM.
The same measure for `CCC[C@@H](Nc1nc(Nc2ccc3c(c2)c(N(C)CCOC)nn3C)c(C(N)=O)cc1F)[C@H](C)N` [Example 2-459, 6-(((2S,3R)-2-aminohexan-3-yl)amino)-5-fluoro-2-((3-((2-methoxyethyl)(methyl)amino)-1-methyl-1H-indazol-5-yl)amino)nicotinamide]: 10 to 50 nM; for `CC[C@@H](Nc1nc(Nc2ccc3[nH]nc(NC)c3c2)c(C(N)=O)cc1F)[C@H](C)N` [Example 2-489, 6-(((2S,3R)-2-aminopentan-3-yl)amino)-5-fluoro-2-((3-(methylamino)-1H-indazol-5-yl)amino)nicotinamide]: 10 to 50 nM; for `CCCC[C@@H](Nc1nc(Nc2cnc3c(c2)c(C)nn3C)c(C(N)=O)cc1F)[C@H](C)N` [Example 2-244, 6-(((2S,3R)-2-aminoheptan-3-yl)amino)-2-((1,3-dimethyl-1H-pyrazolo[3,4-b]pyridin-5-yl)amino)-5-fluoronicotinamide]: 10 to 50 nM.
